In brackets after ≈: the same amount, converted by molar mass. Like-named read-outs stand apart in the source and are kept apart here. No end group written: not given here.
What was measured:
[1] = tested on: lipase; conditions: cited from earlier work; for IC50 on lipase: previously reported
Description: The inhibition mechanisms of crude lipopeptide, fengycin, and surfactin on lipase catalysis were studied.

[2] = reported to cause certain side effects; cited from earlier work
Description: Dietary and lifestyle modifications such as calorie restriction and physical exercises are the common strategies adopted to control body weight; further, these methods have limited anti-obesity effects. It has previously been reported that lipase inhibition is a potential strategy for counteracting obesity. Digestive lipase hydrolyses non-absorbable dietary triglycerides to smaller absorbable molecules of monoglycerides and free fatty acids, which are absorbed by the intestine. Inhibiting digestive lipase can reduce intestinal fat absorption. Human pancreatic lipase is the main enzyme ...

[3] = target: T1, Mucor miehei lipase (Mucor miehei, UniProt P19515 95-363); experiment: other fluorescence titration; quenching of the intrinsic fluorescence of lipase (emission peak 338 nm) by crude lipopeptide at 0-0.457 mg/mL; Stern-Volmer and double-logarithmic plots
T1 sequence (looked up): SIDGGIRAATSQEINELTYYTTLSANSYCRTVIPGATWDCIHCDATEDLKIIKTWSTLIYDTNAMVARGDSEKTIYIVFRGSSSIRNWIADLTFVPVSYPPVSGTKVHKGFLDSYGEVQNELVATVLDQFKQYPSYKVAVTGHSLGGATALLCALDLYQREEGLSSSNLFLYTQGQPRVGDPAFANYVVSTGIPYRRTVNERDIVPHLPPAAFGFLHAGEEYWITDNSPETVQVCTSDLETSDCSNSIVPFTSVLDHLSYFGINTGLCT

[4] = target: T1, Mucor miehei lipase
[5] = target: T2, Mucor miehei lipase (Rhizomucor miehei, UniProt P19515); experiment: Lipase inhibition (4-NPP hydrolysis, 405 nm); conditions: relative to iturin
T2 sequence (P19515 95-363): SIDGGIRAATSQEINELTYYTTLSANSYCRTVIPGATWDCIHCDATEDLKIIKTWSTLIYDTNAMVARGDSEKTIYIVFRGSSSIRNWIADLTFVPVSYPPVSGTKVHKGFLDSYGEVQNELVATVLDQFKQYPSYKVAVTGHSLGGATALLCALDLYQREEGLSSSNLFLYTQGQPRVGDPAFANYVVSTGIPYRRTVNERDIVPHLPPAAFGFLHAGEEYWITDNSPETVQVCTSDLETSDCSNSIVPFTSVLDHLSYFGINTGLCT
Protocol: Lyophilised powder of Mucor miehei lipase (EC3.1.1.3), 4-Nitrophenyl palmitate (4-NPP), iturin, and surfactin were purchased from Sigma-Aldrich (St. Louis, MO). Acetonitrile, hydrochloric acid (HCl) and Tris were purchased from Sinopharm (Shanghai, China).
The lipase inhibition was determined according to the method described by Liu et al.[21] 10 µg/mL lipase in water and 7.5 mmol/L 4-NPP in acetonitrile solutions were prepared. […] The 1 mL reaction mixture contained 0.75 mM 4-NPP, 0.4 µg/mL lipase, and different concentrations of inhibitor in Tris-HCl buffer (pH 7.8). The reaction was carried out at 37 °C and the detection wavelength was set at 405 nm.

[6] = target: T2, Mucor miehei lipase; experiment: Inhibition mechanism and type of lipopeptides on lipase (activity vs enzyme concentration; Lineweaver-Burk); assay type: biochemical; set-up: purchased Sigma-Aldrich (St. Louis, MO); conditions: for Inhibition effect: Type: Lineweaver-Burk plot, Tris-HCl buffer, 100 µL lipase; for IC50, Calculated: calculated value of Table 2; for Inhibition effect: Mechanisms: remaining enzyme activity vs enzyme concentration, lines intersecting at the origin, fixed substrate; for Inhibition constant KI: secondary plot of 1/Vm versus inhibitor concentration
Protocol: The inhibition mechanisms were studied by fixing the concentration of substrate and changing the lipopeptides and enzymes to monitor enzymatic reaction. The inhibition types were determined based on the Lineweaver-Burk plot[22]; this reaction system contained different concentrations of substrate and lipopeptide and 100 µL of lipase in Tris-HCl buffer. Then, the inhibition constant was calculated from a secondary plot of 1/Vm versus the inhibitor concentration.

[7] = target: T1, Mucor miehei lipase; remark: listed apart in the source
[8] = from 72 mN/m; cited from earlier work
Description: In fact, it has been reported that bacterial cyclic lipopeptides are the most popular amphiphilic molecules that are excellent surface active compounds[12]. The genus Bacillus is described as an efficient source of lipopeptide biosurfactants. The Bacillus lipopeptides are divided into three different families, including iturins, surfactins, and fengycins, ...

[9] = target: T1, Mucor miehei lipase; experiment: cell-based or functional assay

Q: What does the source list for `O=C(O)c1ccco1` [furoic acid]?
A: inhibition mechanism on lipase [1]: reversible; IC50 on lipase [1]: 242 µg/mL (≈ 2.16 mM)

Q: For `CCCCCCCCCCC[C@@H](C[C@@H]1OC(=O)[C@H]1CCCCCC)OC(=O)[C@H](CC(C)C)NC=O` [orlistat], which side effects [2] is on record?
A: The side effects was “oily stools, oily spotting, and flatulence”.

Q: What about the “inhibition mechanism on lipase” value [1] of the same molecule?
A: Its value is “irreversible”.

Q: With `O=C(O)C(=O)O` [oxalic acid] as the molecule, how does the “inhibition mechanism on lipase” value [1] read?
A: Its value is “reversible”.

Q: And the IC50 on lipase [1]?
A: Its IC50 on lipase is 1425 µg/mL (≈ 15.8 mM).

Q: What does the source list for “crude lipopeptide from Bacillus velezensis FJAT-52631”?
A: Ksv (Stern-Volmer quenching constant) [3]: 0.525 L/g; stoichiometry N [3]: 0.78; IC50 (calculated) of inhibition of lipase activity [4]: 8 µg/mL; IC50 (measured) of inhibition of lipase activity (4-NPP hydrolysis) [4]: 11 µg/mL

Q: Which “stronger lipase inhibition activity than iturin” value [5] does the source give for fengycin here?
A: The value was “about 10 -fold”.

Q: What about the “Inhibition effect: Type” value [6] of the same molecule?
A: Its value is “Competitive inhibition”.

Q: What about the “Inhibition effect: Type” value ([6]; listed as fengycin) of the same molecule?
A: Its value is “competitive”.

Q: What about the “IC50, Calculated” value [6] of the same molecule?
A: Its value is 2 µg/mL.

Q: What about the “Inhibition effect: Mechanisms” value [6] of the same molecule?
A: The value was “Reversible”.

Q: What about the “Inhibition constant KI” value [6] of the same molecule?
A: The value was 1 µg/mL.

Q: With iturin standard (peptide) as the molecule, how does the IC50 of inhibition of lipase activity (4-NPP hydrolysis) [7] read?
A: Its IC50 of inhibition of lipase activity (4-NPP hydrolysis) is 56 µg/mL.

Q: What does the source list for “purified fengycin from Bacillus velezensis FJAT-52631 (peptide)”?
A: IC50 (calculated) of inhibition of lipase activity [4]: 2 µg/mL; IC50 (measured) of inhibition of lipase activity (4-NPP hydrolysis) [4]: 5 µg/mL

Q: What does the source list for surfactin?
A: stronger lipase inhibition activity than iturin [5]: about 10 -fold; Inhibition effect: Type [6]: Competitive inhibition; Inhibition effect: Type ([6]; listed as surfactin): competitive; IC50, Calculated [6]: 1 µg/mL; Inhibition effect: Mechanisms [6]: Reversible; Inhibition constant KI [6]: 1 µg/mL; surface tension of water lowered to [8]: 27 mN/m

B1: surfactin standard (peptide)
chain: ELLVDLL
modifications: not fully specified (residues 3, 6, N-terminus, bridges); also: cyclic peptide ring with beta-hydroxy fatty acid chain, attachment not given here
Q: What does the source list for B1?
A: IC50 (calculated) of inhibition of lipase activity [9]: 1 µg/mL; IC50 (measured) of inhibition of lipase activity (4-NPP hydrolysis) [9]: 5 µg/mL

Source: paper PMC7170388, “Strong inhibitory activities and action modes of lipopeptides on lipase” (Journal of Enzyme Inhibition and Medicinal Chemistry, 2020)
